In US20220281848A1, “PYRAZOLE-SUBSTITUTED PYRROLIDINONES AS HERBICIDES” (FMC Corporation, priority 2019, published 2022):

Tested on: plants
Experiment: Test D pre-emergence, other plants of Tables D1 and D3
Format: in vivo
Settings: preemergent, 20 DAA
Procedure: A formulation containing 50 g/L of the test chemical was prepared by dissolving the active ingredient in a mixture of organic solvents and emulsifier, details of which are provided in the table. This formulation was then mixed with a small, variable amount of acetone to aid dissolution, before addition of a 0.2% v/v aqueous solution of an adjuvant, as the aqueous diluent, to form an aqueous spray solution which contains a predetermined concentration of the active ingredient.
This aqueous spray solution was then sprayed onto plants including maize and wheat that had been seed treated with a herbicide safener, after one day's cultivation (for pre-emergence) or after about 12 days' cultivation (for post-emergence). The plants were grown from seeds sown in standard soil, placed in a glasshouse under controlled conditions (at 24/18° C. or 20/16° C., day/night; 16 h light; 65% humidity). After spray application the plants were then grown in a glasshouse under the same conditions and watered twice daily. After 15 d for post-emergence and 20 DAA for pre-emergence the test was evaluated (100=total damage to plant; 0=no damage to plant).

CN1CC(c2cc(C(F)(F)F)n(C)n2)C(C(=O)Nc2cccc(F)c2F)C1=O (racemic) [Compound 3]
damage to plant (100=total damage to plant; 0=no damage to plant), ABUTH (rate 15): 0
damage to plant (100=total damage to plant; 0=no damage to plant), ABUTH (rate 30): 0
damage to plant (100=total damage to plant; 0=no damage to plant), ABUTH (rate 60): 0
damage to plant (100=total damage to plant; 0=no damage to plant), ABUTH (rate 130): 0
damage to plant (100=total damage to plant; 0=no damage to plant), ABUTH (rate 250): 0
damage to plant (100=total damage to plant; 0=no damage to plant), ABUTH (rate 500): 0
damage to plant (100=total damage to plant; 0=no damage to plant), BIDPI (rate 15): 0
damage to plant (100=total damage to plant; 0=no damage to plant), BIDPI (rate 30): 0
damage to plant (100=total damage to plant; 0=no damage to plant), BIDPI (rate 60): 0
damage to plant (100=total damage to plant; 0=no damage to plant), BIDPI (rate 130): 0
damage to plant (100=total damage to plant; 0=no damage to plant), BIDPI (rate 250): 0
damage to plant (100=total damage to plant; 0=no damage to plant), BIDPI (rate 500): 0
damage to plant (100=total damage to plant; 0=no damage to plant), BRAPL (rate 15): 20
damage to plant (100=total damage to plant; 0=no damage to plant), BRAPL (rate 30): 50
damage to plant (100=total damage to plant; 0=no damage to plant), BRAPL (rate 60): 90
damage to plant (100=total damage to plant; 0=no damage to plant), BRAPL (rate 130): 100
damage to plant (100=total damage to plant; 0=no damage to plant), BRAPL (rate 250): 100
damage to plant (100=total damage to plant; 0=no damage to plant), BRAPL (rate 500): 100
damage to plant (100=total damage to plant; 0=no damage to plant), CYPES (rate 15): 0
damage to plant (100=total damage to plant; 0=no damage to plant), CYPES (rate 30): 0
damage to plant (100=total damage to plant; 0=no damage to plant), CYPES (rate 60): 0
damage to plant (100=total damage to plant; 0=no damage to plant), CYPES (rate 130): 0
damage to plant (100=total damage to plant; 0=no damage to plant), CYPES (rate 250): 0
damage to plant (100=total damage to plant; 0=no damage to plant), CYPES (rate 500): 10
damage to plant (100=total damage to plant; 0=no damage to plant), DIGSA (rate 15): 20
damage to plant (100=total damage to plant; 0=no damage to plant), DIGSA (rate 30): 90
damage to plant (100=total damage to plant; 0=no damage to plant), DIGSA (rate 60): 90
damage to plant (100=total damage to plant; 0=no damage to plant), DIGSA (rate 130): 100
damage to plant (100=total damage to plant; 0=no damage to plant), DIGSA (rate 250): 100
damage to plant (100=total damage to plant; 0=no damage to plant), DIGSA (rate 500): 100
damage to plant (100=total damage to plant; 0=no damage to plant), ECHCG (rate 15): 20
damage to plant (100=total damage to plant; 0=no damage to plant), ECHCG (rate 30): 90
damage to plant (100=total damage to plant; 0=no damage to plant), ECHCG (rate 60): 90
damage to plant (100=total damage to plant; 0=no damage to plant), ECHCG (rate 130): 90
damage to plant (100=total damage to plant; 0=no damage to plant), ECHCG (rate 250): 100
damage to plant (100=total damage to plant; 0=no damage to plant), ECHCG (rate 500): 100
damage to plant (100=total damage to plant; 0=no damage to plant), ELEIN (rate 15): 0
damage to plant (100=total damage to plant; 0=no damage to plant), ELEIN (rate 30): 0
damage to plant (100=total damage to plant; 0=no damage to plant), ELEIN (rate 60): 0
damage to plant (100=total damage to plant; 0=no damage to plant), ELEIN (rate 130): 0
damage to plant (100=total damage to plant; 0=no damage to plant), ELEIN (rate 250): 0
damage to plant (100=total damage to plant; 0=no damage to plant), ELEIN (rate 500): 0
damage to plant (100=total damage to plant; 0=no damage to plant), EPHHL (rate 15): 0
damage to plant (100=total damage to plant; 0=no damage to plant), EPHHL (rate 30): 0
damage to plant (100=total damage to plant; 0=no damage to plant), EPHHL (rate 60): 0
damage to plant (100=total damage to plant; 0=no damage to plant), EPHHL (rate 130): 0
damage to plant (100=total damage to plant; 0=no damage to plant), EPHHL (rate 250): 10
damage to plant (100=total damage to plant; 0=no damage to plant), EPHHL (rate 500): 10
damage to plant (100=total damage to plant; 0=no damage to plant), GLXMA (rate 15): 0
damage to plant (100=total damage to plant; 0=no damage to plant), GLXMA (rate 30): 0
damage to plant (100=total damage to plant; 0=no damage to plant), GLXMA (rate 60): 0
damage to plant (100=total damage to plant; 0=no damage to plant), GLXMA (rate 130): 0
damage to plant (100=total damage to plant; 0=no damage to plant), GLXMA (rate 250): 0
damage to plant (100=total damage to plant; 0=no damage to plant), GLXMA (rate 500): 10
damage to plant (100=total damage to plant; 0=no damage to plant), IPOHE (rate 15): 0
damage to plant (100=total damage to plant; 0=no damage to plant), IPOHE (rate 30): 0
damage to plant (100=total damage to plant; 0=no damage to plant), IPOHE (rate 60): 0
damage to plant (100=total damage to plant; 0=no damage to plant), IPOHE (rate 130): 0
damage to plant (100=total damage to plant; 0=no damage to plant), IPOHE (rate 250): 0
damage to plant (100=total damage to plant; 0=no damage to plant), IPOHE (rate 500): 0
damage to plant (100=total damage to plant; 0=no damage to plant), ORYSA (rate 15): 0
damage to plant (100=total damage to plant; 0=no damage to plant), ORYSA (rate 30): 0
damage to plant (100=total damage to plant; 0=no damage to plant), ORYSA (rate 60): 0
damage to plant (100=total damage to plant; 0=no damage to plant), ORYSA (rate 130): 0
damage to plant (100=total damage to plant; 0=no damage to plant), ORYSA (rate 250): 0
damage to plant (100=total damage to plant; 0=no damage to plant), ORYSA (rate 500): 0
damage to plant (100=total damage to plant; 0=no damage to plant), PANMI (rate 15): 0
damage to plant (100=total damage to plant; 0=no damage to plant), PANMI (rate 30): 0
damage to plant (100=total damage to plant; 0=no damage to plant), PANMI (rate 60): 0
damage to plant (100=total damage to plant; 0=no damage to plant), PANMI (rate 130): 0
damage to plant (100=total damage to plant; 0=no damage to plant), PANMI (rate 250): 0
damage to plant (100=total damage to plant; 0=no damage to plant), PANMI (rate 500): 0
damage to plant (100=total damage to plant; 0=no damage to plant), SETFA (rate 15): 0
damage to plant (100=total damage to plant; 0=no damage to plant), SETFA (rate 30): 30
damage to plant (100=total damage to plant; 0=no damage to plant), SETFA (rate 60): 80
damage to plant (100=total damage to plant; 0=no damage to plant), SETFA (rate 130): 90
damage to plant (100=total damage to plant; 0=no damage to plant), SETFA (rate 250): 90
damage to plant (100=total damage to plant; 0=no damage to plant), SETFA (rate 500): 90
damage to plant (100=total damage to plant; 0=no damage to plant), SIDSP (rate 15): 0
damage to plant (100=total damage to plant; 0=no damage to plant), SIDSP (rate 30): 0
damage to plant (100=total damage to plant; 0=no damage to plant), SIDSP (rate 130): 0
damage to plant (100=total damage to plant; 0=no damage to plant), SIDSP (rate 250): 60
damage to plant (100=total damage to plant; 0=no damage to plant), SIDSP (rate 500): 60
damage to plant (100=total damage to plant; 0=no damage to plant), SORVU (rate 15): 0
damage to plant (100=total damage to plant; 0=no damage to plant), SORVU (rate 30): 0
damage to plant (100=total damage to plant; 0=no damage to plant), SORVU (rate 60): 0
damage to plant (100=total damage to plant; 0=no damage to plant), SORVU (rate 130): 0
damage to plant (100=total damage to plant; 0=no damage to plant), SORVU (rate 250): 0
damage to plant (100=total damage to plant; 0=no damage to plant), SORVU (rate 500): 0
